Laboratory results from the NIST ThermoML archive (doi:10.1021/je900570e).

Assay: xn = mol fraction of the nth substance listed
Conditions: Liquid; for viscosity / speed of sound: 101 kPa; for viscosity: Capillary tube (Ostwald / Ubbelohde) method; for speed of sound: Frequency=2 MHz, Pulse-echo method; for mass density: 101.33 kPa, Vibrating tube method

N#CCc1ccccc1 [benzeneacetonitrile] + ClCCCl
Conditions	mass density, 303.15 K [kg/m3]	mass density, 308.15 K [kg/m3]	mass density, 313.15 K [kg/m3]	speed of sound, 303.15 K [m/s]	speed of sound, 308.15 K [m/s]	speed of sound, 313.15 K [m/s]	viscosity, 303.15 K [mPa·s]	viscosity, 308.15 K [mPa·s]	viscosity, 313.15 K [mPa·s]
x1 = 0.0165	1233.5	1225.3	1218.7	1182.2	1171.9	1161	0.7352	0.6821	0.6456
x1 = 0.1059	1205.5	1198.9	1191.5	1221.2	1211.5	1200.5	0.8165	0.7512	0.708
x1 = 0.2041	1177.1	1171	1163.5	1262.4	1252.3	1243.7	0.9029	0.8313	0.7877
x1 = 0.3088	1149.2	1143.5	1136.1	1304.2	1293.6	1285.3	1.003	0.9258	0.8746
x1 = 0.4073	1124.8	1119.4	1111.8	1339.5	1330.8	1320.8	1.103	1.017	0.9576
x1 = 0.5122	1100.7	1095.6	1087.6	1374.8	1367.5	1355.9	1.213	1.117	1.048
x1 = 0.648	1072	1067.2	1058.8	1418.6	1411.8	1399.9	1.365	1.248	1.165
x1 = 0.8003	1042.8	1038.2	1029.5	1465.2	1458.9	1447.6	1.536	1.398	1.299
x1 = 0.9705	1013.6	1008.8	999.9	1512.6	1505.4	1499.1	1.725	1.568	1.456
x1 = 1	1008.8	1004.1	999.5	1519.2	1512.9	1503.4	1.761	1.602	1.489

N#CCc1ccccc1 [benzeneacetonitrile] + ClC(Cl)C(Cl)Cl
Conditions	mass density, 303.15 K [kg/m3]	mass density, 308.15 K [kg/m3]	mass density, 313.15 K [kg/m3]	speed of sound, 303.15 K [m/s]	speed of sound, 308.15 K [m/s]	speed of sound, 313.15 K [m/s]	viscosity, 303.15 K [mPa·s]	viscosity, 308.15 K [mPa·s]	viscosity, 313.15 K [mPa·s]
x1 = 0.0221	1566.5	1558.5	1551.7	1142	1125	1107.4	1.489	1.376	1.277
x1 = 0.1374	1497.2	1490.1	1483.5	1179.7	1166.3	1154.6	1.661	1.528	1.413
x1 = 0.2564	1426.9	1420	1413.8	1220.9	1209.3	1201.6	1.838	1.678	1.544
x1 = 0.3743	1358.8	1351.7	1345.9	1263.5	1251.5	1245.6	1.954	1.775	1.63
x1 = 0.4799	1297.2	1291.5	1285.9	1303.1	1289.9	1283.9	2.011	1.837	1.674
x1 = 0.5852	1236.4	1231.7	1226.2	1343.4	1329.5	1323.9	2.017	1.832	1.682
x1 = 0.7131	1164.2	1160.2	1154.9	1393.9	1381	1373.2	1.966	1.796	1.645
x1 = 0.8414	1093.9	1089.9	1085	1446.4	1436.5	1426.2	1.894	1.725	1.597
x1 = 0.9748	1022.5	1018.2	1013.5	1504.3	1497.2	1487.4	1.772	1.617	1.503
x1 = 1	1008.8	1004.1	999.5	1519.2	1512.9	1503.4	1.761	1.602	1.489

ClCC(Cl)Cl [1,1,2-trichloroethane] + N#CCc1ccccc1
Conditions	mass density, 303.15 K [kg/m3]	mass density, 308.15 K [kg/m3]	mass density, 313.15 K [kg/m3]	speed of sound, 303.15 K [m/s]	speed of sound, 308.15 K [m/s]	speed of sound, 313.15 K [m/s]	viscosity, 303.15 K [mPa·s]	viscosity, 308.15 K [mPa·s]	viscosity, 313.15 K [mPa·s]
x2 = 0	1425	1416.1	1409.6	1129.2	1115.9	1096.1	1.019	0.9483	0.8888
x2 = 0.0185	1415.6	1407.2	1400.5	1137	1125	1105.9	1.046	0.9728	0.9045
x2 = 0.1212	1364.9	1358.6	1351.2	1176.7	1168.2	1150.9	1.158	1.064	0.9825
x2 = 0.2319	1312.6	1307.3	1300.6	1219.7	1214.2	1199.9	1.264	1.163	1.074
x2 = 0.3463	1261.1	1256.2	1250.2	1263.4	1261.9	1248.1	1.365	1.259	1.169
x2 = 0.445	1218.6	1214	1208.4	1301	1301.5	1288.9	1.454	1.336	1.242
x2 = 0.5545	1173.4	1168.9	1163.6	1342.8	1343.3	1332.8	1.545	1.411	1.307
x2 = 0.6861	1121.7	1117.3	1112.1	1393.4	1392.9	1383.2	1.631	1.491	1.381
x2 = 0.8245	1070.3	1065.7	1060.7	1446.6	1445.1	1431.8	1.706	1.561	1.436
x2 = 0.972	1018.4	1013.7	1009	1505.3	1498.7	1488.9	1.758	1.595	1.477

N#CCc1ccccc1 [benzeneacetonitrile] + ClC=C(Cl)Cl
Conditions	mass density, 303.15 K [kg/m3]	mass density, 308.15 K [kg/m3]	mass density, 313.15 K [kg/m3]	speed of sound, 303.15 K [m/s]	speed of sound, 308.15 K [m/s]	speed of sound, 313.15 K [m/s]	viscosity, 303.15 K [mPa·s]	viscosity, 308.15 K [mPa·s]	viscosity, 313.15 K [mPa·s]
x1 = 0.0195	1437	1428.5	1420	1024.6	1004.9	992.5	0.5201	0.486	0.4908
x1 = 0.119	1383.8	1377.2	1369.5	1073.5	1057.5	1045.8	0.5905	0.553	0.5292
x1 = 0.2263	1329.5	1323.9	1316.9	1128.2	1114.1	1102.9	0.6901	0.6417	0.6092
x1 = 0.3478	1271.9	1266.3	1260.1	1191	1179.2	1169.9	0.82	0.7558	0.715
x1 = 0.4396	1230.2	1225	1219.2	1238.9	1228.9	1221.9	0.9316	0.8529	0.7976
x1 = 0.5443	1184.5	1179.6	1174.2	1293.3	1284.6	1279.3	1.066	0.9721	0.9137
x1 = 0.6782	1128.8	1124.7	1119.5	1364.1	1356.5	1351	1.248	1.147	1.075
x1 = 0.819	1074.1	1070.3	1064.9	1435.8	1428.4	1425	1.456	1.339	1.248
x1 = 0.9692	1019.7	1015.3	1010.2	1504.1	1502.7	1499.2	1.698	1.546	1.439
x1 = 1	1008.8	1004.1	999.5	1519.2	1512.9	1503.4	1.761	1.602	1.489
